Patent publication EP0908457B1, “3-(1,2-benzisothiazol- and isoxazol-5-Y1)-2,4(1H,3H)-pyrimidinedione or thione and 3-(1,2-benzisothiazol- and isoxazol-5-y1)-4(3H)-pyrimidinone or thione herbicidal agents” (BASF AKTIENGESELLSCHAFT, priority 1997, dated 1999)

Tests used:
[1] = system: Echinochloa oryzoides (Ard.) Fritsch.; test: Preemergence weed control under flooded paddy conditions, ECHORC (Watergrass (Calif.)); type: in vivo; conditions: flooded paddy; for herbicidal effect rating, ECHORC / ECHORC herbicidal effect rating / ECHORC herbicidal rating: rated three to four weeks after treatment; for ECHORC: herbicidal effect rating 0-9, three to four weeks after treatment; as to herbicidal effect rating, ECHORC: meaning of each grade not given here
[2] = system: Cyperus iria; test: Preemergence weed control under flooded paddy conditions, CYPIR (Rice Flatsedge); type: in vivo; conditions: flooded paddy; for herbicidal effect rating, CYPIR / CYPIR herbicidal effect rating / CYPIR herbicidal rating: rated three to four weeks after treatment; for CYPIR: herbicidal effect rating 0-9, three to four weeks after treatment; as to herbicidal effect rating, CYPIR: meaning of each grade not given here
[3] = system: Cyperus serotinus, Rottb.; test: Preemergence weed control under flooded paddy conditions, CYPSE (Flatsedge); type: in vivo; conditions: for CYPSE: herbicidal effect rating 0-9, three to four weeks after treatment; as to herbicidal effect rating, CYPSE: meaning of each grade not given here
[4] = system: Monochoria vaginalis, Presl.; test: Preemergence weed control under flooded paddy conditions, MOOVA (Monochoria); type: in vivo; conditions: flooded paddy; for herbicidal effect rating, MOOVA / MOOVA herbicidal effect rating / MOOVA herbicidal rating: rated three to four weeks after treatment; for MOOVA: herbicidal effect rating 0-9, three to four weeks after treatment; as to herbicidal effect rating, MOOVA: meaning of each grade not given here
[5] = system: Sagittaria pygmaea, L.; test: Preemergence weed control under flooded paddy conditions, SAGPY (Arrowhead (Pygmaea)); type: in vivo; conditions: flooded paddy; for herbicidal effect rating, SAGPY / SAGPY herbicidal effect rating / SAGPY herbicidal rating: rated three to four weeks after treatment; for SAGPY: herbicidal effect rating 0-9, three to four weeks after treatment; as to herbicidal effect rating, SAGPY: meaning of each grade not given here
[6] = system: Oryza sativa, (L.) Tebonnet; test: Rice tolerance to post-transplant applications under flooded paddy conditions (Example 187), ORYSAT (Rice, Tebonnet); conditions: for herbicidal effect rating ORYSAT / herbicidal effect rating, ORYSAT (rice tolerance) / ORYSAT herbicidal effect rating / ORYSAT herbicidal rating (rice tolerance): rated three to four weeks after treatment; for ORYSAT: herbicidal effect rating 0-9, three to four weeks after treatment
[7] = Rate 0.0320 kg/ha, preemergence weeds
[8] = Rate 0.0620 kg/ha, preemergence weeds
[9] = Rate 0.1250 kg/ha, preemergence weeds
[10] = Rate 0.2500 kg/ha, preemergence weeds
[11] = 0.0320 kg/ha, preemergence weeds
[12] = 0.0620 kg/ha, preemergence weeds
[13] = 0.1250 kg/ha, preemergence weeds
[14] = 0.2500 kg/ha, preemergence weeds
[15] = 0.0313 kg/ha, preemergence weeds
[16] = 0.0625 kg/ha, preemergence weeds
[17] = Rate 0.0320 kg/ha, preemergence
[18] = Rate 0.0620 kg/ha, preemergence
[19] = Rate 0.1250 kg/ha, preemergence
[20] = Rate 0.2500 kg/ha, preemergence

COc1ccc(C)cc1-c1noc2cc(F)c(-n3c(=O)cc(C(F)(F)F)n(C)c3=O)cc12 [Example 345, 2,4(1H,3H)-Pyrimidinedione, 3-[6-fluoro-3-(6-methoxy-m-tolyl)-1,2-benzisoxazol-5-yl]-1-methyl-6-(trifluoromethyl)-]
herbicidal effect rating, ECHORC [1, 7]: 9.0 | herbicidal effect rating, ECHORC [1, 8]: 9.0 | herbicidal effect rating, ECHORC [1, 9]: 9.0 | herbicidal effect rating, ECHORC [1, 10]: 9.0 | herbicidal effect rating, CYPIR [2, 7]: 9.0 | herbicidal effect rating, CYPIR [2, 8]: 9.0 | herbicidal effect rating, CYPIR [2, 9]: 9.0 | herbicidal effect rating, CYPIR [2, 10]: 9.0 | herbicidal effect rating, CYPSE ([3]; Rate 0.0320 kg/ha, preemergence weeds, rated three to four weeks after treatment): 5.0 | herbicidal effect rating, CYPSE ([3]; Rate 0.0620 kg/ha, preemergence weeds, rated three to four weeks after treatment): 9.0 | herbicidal effect rating, CYPSE ([3]; Rate 0.1250 kg/ha, preemergence weeds, rated three to four weeks after treatment): 4.5 | herbicidal effect rating, CYPSE ([3]; Rate 0.2500 kg/ha, preemergence weeds, rated three to four weeks after treatment): 9.0 | herbicidal effect rating, MOOVA [4, 7]: 9.0 | herbicidal effect rating, MOOVA [4, 8]: 9.0 | herbicidal effect rating, MOOVA [4, 9]: 9.0 | herbicidal effect rating, MOOVA [4, 10]: 9.0 | herbicidal effect rating, SAGPY [5, 7]: 4.5 | herbicidal effect rating, SAGPY [5, 8]: 9.0 | herbicidal effect rating, SAGPY [5, 9]: 9.0 | herbicidal effect rating, SAGPY [5, 10]: 9.0 | herbicidal effect rating ORYSAT ([6]; Rate 0.0320 kg/ha): 5.5 | herbicidal effect rating ORYSAT ([6]; Rate 0.0620 kg/ha): 5.5 | herbicidal effect rating ORYSAT ([6]; Rate 0.1250 kg/ha): 5.5 | herbicidal effect rating ORYSAT ([6]; Rate 0.2500 kg/ha): 6.0

COC(=O)C(C)Oc1c(C)cc(C)cc1-c1nsc2ccc(-n3c(=O)cc(C(F)(F)F)n(C)c3=O)cc12 (centres unmarked) [Example 27, Methyl 2-{{6-{5-[3,6-dihydro-3-methyl-2,6-dioxo-4-(trifluoromethyl)-1(2H)-pyrimidinyl]-1,2-benzisothiazol-3-yl}-2,4-xylyl}oxy}propionate]
herbicidal effect rating, ECHORC ([1]; 0.0313 kg/ha, preemergence): 6.0 | herbicidal effect rating, ECHORC ([1]; 0.0625 kg/ha, preemergence): 7.0 | herbicidal effect rating, ECHORC ([1]; 0.1250 kg/ha, preemergence): 9.0 | herbicidal effect rating, ECHORC ([1]; 0.2500 kg/ha, preemergence): 9.0 | herbicidal effect rating, CYPIR ([2]; 0.0313 kg/ha, preemergence): 2.0 | herbicidal effect rating, CYPIR ([2]; 0.0625 kg/ha, preemergence): 4.0 | herbicidal effect rating, CYPIR ([2]; 0.1250 kg/ha, preemergence): 6.0 | herbicidal effect rating, CYPIR ([2]; 0.2500 kg/ha, preemergence): 9.0 | herbicidal effect rating, CYPSE ([3]; 0.0313 kg/ha, preemergence, rated three to four weeks after treatment): 0.0 | herbicidal effect rating, CYPSE ([3]; 0.0625 kg/ha, preemergence, rated three to four weeks after treatment): 0.0 | herbicidal effect rating, CYPSE ([3]; 0.1250 kg/ha, preemergence, rated three to four weeks after treatment): 0.0 | herbicidal effect rating, CYPSE ([3]; 0.2500 kg/ha, preemergence, rated three to four weeks after treatment): 2.0 | herbicidal effect rating, MOOVA ([4]; 0.0313 kg/ha, preemergence): 8.0 | herbicidal effect rating, MOOVA ([4]; 0.0625 kg/ha, preemergence): 9.0 | herbicidal effect rating, MOOVA ([4]; 0.1250 kg/ha, preemergence): 9.0 | herbicidal effect rating, MOOVA ([4]; 0.2500 kg/ha, preemergence): 9.0 | herbicidal effect rating, SAGPY ([5]; 0.0313 kg/ha, preemergence): 0.0 | herbicidal effect rating, SAGPY ([5]; 0.0625 kg/ha, preemergence): 0.0 | herbicidal effect rating, SAGPY ([5]; 0.1250 kg/ha, preemergence): 2.0 | herbicidal effect rating, SAGPY ([5]; 0.2500 kg/ha, preemergence): 4.0 | herbicidal effect rating, ORYSAT (rice tolerance) ([6]; 0.0313 kg/ha): 2.0 | herbicidal effect rating, ORYSAT (rice tolerance) ([6]; 0.0625 kg/ha): 3.0 | herbicidal effect rating, ORYSAT (rice tolerance) ([6]; 0.1250 kg/ha): 5.0 | herbicidal effect rating, ORYSAT (rice tolerance) ([6]; 0.2500 kg/ha): 6.0

Cn1c(C(F)(F)F)cc(=O)n(-c2ccc3snc(C(Br)S(=O)(=O)c4ccccc4)c3c2)c1=O (centres unmarked) [Example 407, 2,4(1H,3H)-Pyrimidinedione, 3-{3-[bromo(phenylsulfonyl)methyl]-1,2-benzisothiazol-5-yl}-1-methyl-6-(trifluoromethyl)-]
ECHORC [1, 11]: 0.0 | ECHORC [1, 12]: 3.0 | ECHORC [1, 13]: 7.0 | ECHORC [1, 14]: 7.0 | CYPIR [2, 11]: 3.0 | CYPIR [2, 12]: 4.0 | CYPIR [2, 13]: 9.0 | CYPIR [2, 14]: 9.0 | CYPSE [3, 11]: 0.0 | CYPSE [3, 12]: 0.0 | CYPSE [3, 13]: 5.0 | CYPSE [3, 14]: 7.0 | MOOVA [4, 11]: 6.0 | MOOVA [4, 12]: 7.0 | MOOVA [4, 13]: 9.0 | MOOVA [4, 14]: 9.0 | SAGPY [5, 11]: 0.0 | SAGPY [5, 12]: 2.0 | SAGPY [5, 13]: 6.0 | SAGPY [5, 14]: 7.0 | ORYSAT ([6]; 0.0320 kg/ha): 0.0 | ORYSAT ([6]; 0.0620 kg/ha): 2.0 | ORYSAT ([6]; 0.1250 kg/ha): 3.0 | ORYSAT ([6]; 0.2500 kg/ha): 5.0

COCCOC(=O)COc1ccc(C)cc1-c1nsc2ccc(-n3c(=O)cc(C(F)(F)F)n(C)c3=O)cc12 [Example 191, 2-Methoxyethyl {{2-{5-[3,6-dihydro-3-methyl-2,6-dioxo-4-(trifluoromethyl)-1(2H)-pyrimidinyl]-1,2-benzisothiazol-3-yl}-p-tolyl}oxy}acetate]
herbicidal effect rating, ECHORC [1, 15]: 0.0 | herbicidal effect rating, ECHORC [1, 16]: 2.0 | herbicidal effect rating, ECHORC [1, 13]: 4.0 | herbicidal effect rating, ECHORC [1, 14]: 7.0 | herbicidal effect rating, CYPIR [2, 15]: 0.0 | herbicidal effect rating, CYPIR [2, 16]: 0.0 | herbicidal effect rating, CYPIR [2, 13]: 2.0 | herbicidal effect rating, CYPIR [2, 14]: 4.0 | herbicidal effect rating, CYPSE ([3]; 0.0313 kg/ha, preemergence weeds, rated three to four weeks after treatment): 0.0 | herbicidal effect rating, CYPSE ([3]; 0.0625 kg/ha, preemergence weeds, rated three to four weeks after treatment): 0.0 | herbicidal effect rating, CYPSE ([3]; 0.1250 kg/ha, preemergence weeds, rated three to four weeks after treatment): 0.0 | herbicidal effect rating, MOOVA [4, 15]: 9.0 | herbicidal effect rating, MOOVA [4, 16]: 9.0 | herbicidal effect rating, MOOVA [4, 13]: 9.0 | herbicidal effect rating, MOOVA [4, 14]: 9.0 | herbicidal effect rating, SAGPY [5, 15]: 0.0 | herbicidal effect rating, SAGPY [5, 16]: 0.0 | herbicidal effect rating, SAGPY [5, 13]: 0.0 | herbicidal effect rating, SAGPY [5, 14]: 0.0 | herbicidal effect rating, ORYSAT (rice tolerance) ([6]; 0.0313 kg/ha): 1.0 | herbicidal effect rating, ORYSAT (rice tolerance) ([6]; 0.0625 kg/ha): 2.0 | herbicidal effect rating, ORYSAT (rice tolerance) ([6]; 0.1250 kg/ha): 3.0 | herbicidal effect rating, ORYSAT (rice tolerance) ([6]; 0.2500 kg/ha): 6.0

C#CCOC(=O)COc1ccc(-c2nsc3ccc(-n4c(=O)cc(C(F)(F)F)n(C)c4=O)cc23)cc1 [Example 259, Acetic acid, [p-{5-[3,6-dihydro-3-methyl-2,6-dioxo-4-(trifluoromethyl)-1(2H)-pyrimidinyl]-1,2-benzisothiazol-3-yl}phenoxy)-, 2-propynyl ester]
ECHORC herbicidal effect rating [1, 17]: 0.0 | ECHORC herbicidal effect rating [1, 18]: 0.0 | ECHORC herbicidal effect rating [1, 19]: 0.0 | ECHORC herbicidal effect rating [1, 20]: 2.0 | CYPIR herbicidal effect rating [2, 17]: 0.0 | CYPIR herbicidal effect rating [2, 18]: 2.0 | CYPIR herbicidal effect rating [2, 19]: 4.0 | CYPIR herbicidal effect rating [2, 20]: 4.0 | CYPSE herbicidal effect rating ([3]; Rate 0.0320 kg/ha, preemergence, rated three to four weeks after treatment): 0.0 | CYPSE herbicidal effect rating ([3]; Rate 0.0620 kg/ha, preemergence, rated three to four weeks after treatment): 0.0 | MOOVA herbicidal effect rating [4, 17]: 6.0 | MOOVA herbicidal effect rating [4, 18]: 9.0 | MOOVA herbicidal effect rating [4, 19]: 9.0 | MOOVA herbicidal effect rating [4, 20]: 9.0 | SAGPY herbicidal effect rating [5, 17]: 0.0 | SAGPY herbicidal effect rating [5, 18]: 0.0 | SAGPY herbicidal effect rating [5, 19]: 0.0 | SAGPY herbicidal effect rating [5, 20]: 0.0 | ORYSAT herbicidal effect rating ([6]; Rate 0.0320 kg/ha): 1.0 | ORYSAT herbicidal effect rating ([6]; Rate 0.0620 kg/ha): 1.0 | ORYSAT herbicidal effect rating ([6]; Rate 0.1250 kg/ha): 2.0 | ORYSAT herbicidal effect rating ([6]; Rate 0.2500 kg/ha): 3.0

COc1ccc(C)cc1-c1nsc2cc(F)c(-n3c(=O)cc(C(F)(F)F)n(C)c3=O)cc12 [Example 462, 2,4(1H,3H)-Pyrimidinedione, 3-[6-fluoro-3-(6-methoxy-m-tolyl)-1,2-benzisothiazol-5-yl]-1-methyl-6-(trifluoromethyl)-]
ECHORC herbicidal rating ([1]; 0.0320 kg/ha, preemergence): 9.0 | ECHORC herbicidal rating ([1]; 0.0620 kg/ha, preemergence): 9.0 | ECHORC herbicidal rating ([1]; 0.1250 kg/ha, preemergence): 9.0 | ECHORC herbicidal rating ([1]; 0.2500 kg/ha, preemergence): 9.0 | CYPIR herbicidal rating ([2]; 0.0320 kg/ha, preemergence): 9.0 | CYPIR herbicidal rating ([2]; 0.0620 kg/ha, preemergence): 9.0 | CYPIR herbicidal rating ([2]; 0.1250 kg/ha, preemergence): 9.0 | CYPIR herbicidal rating ([2]; 0.2500 kg/ha, preemergence): 9.0 | CYPSE herbicidal rating ([3]; 0.0620 kg/ha, preemergence, rated three to four weeks after treatment): 3.0 | MOOVA herbicidal rating ([4]; 0.0320 kg/ha, preemergence): 9.0 | MOOVA herbicidal rating ([4]; 0.0620 kg/ha, preemergence): 9.0 | MOOVA herbicidal rating ([4]; 0.1250 kg/ha, preemergence): 9.0 | MOOVA herbicidal rating ([4]; 0.2500 kg/ha, preemergence): 9.0 | SAGPY herbicidal rating ([5]; 0.0320 kg/ha, preemergence): 1.0 | SAGPY herbicidal rating ([5]; 0.0620 kg/ha, preemergence): 4.0 | SAGPY herbicidal rating ([5]; 0.1250 kg/ha, preemergence): 5.0 | SAGPY herbicidal rating ([5]; 0.2500 kg/ha, preemergence): 6.0 | ORYSAT herbicidal rating (rice tolerance) ([6]; 0.0320 kg/ha): 5.0 | ORYSAT herbicidal rating (rice tolerance) ([6]; 0.0620 kg/ha): 5.0 | ORYSAT herbicidal rating (rice tolerance) ([6]; 0.2500 kg/ha): 6.0
